Among the test systems are UO-31 renal; SK-MEL-28 melanoma; UACC-257 melanoma; OVCAR-5 ovarian; U251 CNS; ACHN renal; MALME-3M melanoma; OVCAR-3 ovarian; LOX IMVI melanoma; SF-268 CNS.
Holding throughout (assay): growth of human tumour cells (NCI), 48 h

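48-hour exposure; five concentrations; linearly interpolated endpoints. The concentration for 50% growth inhibition is given as GI50. TGI marks complete inhibition of growth.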

`CNC(=O)N1CN(c2ccccc2)C2(CCN(CCCC(=O)c3ccc(F)cc3)CC2)C1=O`: the TGI came out at 28.1 µM with UO-31 renal; 38.4 µM in the assay on SK-MEL-28 melanoma; 24.2 µM in the assay on UACC-257 melanoma; 29 µM in the assay with OVCAR-5 ovarian; 60.4 µM with U251 CNS; 75.5 µM in the assay on ACHN renal. For the same molecule, the TGI in the assay with MALME-3M melanoma is 35.3 µM; in the assay on OVCAR-3 ovarian, 41.6 µM; in the assay on LOX IMVI melanoma, 37.1 µM; with SF-268 CNS it was more than 100 µM.
On to `COc1ccc(NC(=O)/C(=N\NC(=O)C[n+]2ccccc2)c2c(O)c3ccc(O)cc3oc2=O)c([N+](=O)[O-])c1`, for which the TGI with UO-31 renal, in the assay on SK-MEL-28 melanoma, with UACC-257 melanoma, with OVCAR-5 ovarian, in the assay with U251 CNS and in the assay on ACHN renal was more than 100 µM in each case. Also, the TGI in the assay with MALME-3M melanoma, in the assay on OVCAR-3 ovarian, in the assay on LOX IMVI melanoma and in the assay with SF-268 CNS was more than 100 µM each time.
`C[C@@H]1CC[C@H]2C(COCCOCC3=C(C(F)(F)F)O[C@@H]4O[C@@]5(C)CC[C@H]6[C@H](C)CC[C@@H]3[C@@]46OO5)=C(C(F)(F)F)O[C@@H]3O[C@@]4(C)CC[C@@H]1[C@]32OO4`: the GI50 in the assay with UO-31 renal is 0.186 µM; in the assay with SK-MEL-28 melanoma it was more than 7.2 µM; in the assay on UACC-257 melanoma, 0.407 µM; in the assay with OVCAR-5 ovarian, more than 4.64 µM; in the assay with U251 CNS it was less than 0.01 µM; with ACHN renal it was 0.0797 µM. Further, the GI50 is less than 0.01 µM with MALME-3M melanoma, 0.134 µM in the assay on OVCAR-3 ovarian, 0.0641 µM in the assay with LOX IMVI melanoma and 0.0602 µM in the assay on SF-268 CNS. In addition, the TGI in the assay with UO-31 renal is more than 100 µM; in the assay with SK-MEL-28 melanoma it was more than 55.3 µM; in the assay with UACC-257 melanoma it was more than 100 µM; in the assay with OVCAR-5 ovarian, more than 20 µM; with U251 CNS it was 0.178 µM; in the assay on ACHN renal, more than 10.3 µM. Further, the TGI with MALME-3M melanoma was 9.26 µM; with OVCAR-3 ovarian it was more than 8.24 µM; in the assay with SF-268 CNS, more than 100 µM.
On to `CN(/N=C(\C(=O)O)c1ccccc1)C1=NCCCN1`, for which the TGI in the assay with UO-31 renal, in the assay with SK-MEL-28 melanoma, in the assay with UACC-257 melanoma, with OVCAR-5 ovarian, in the assay on U251 CNS and in the assay with ACHN renal was more than 100 µM throughout. Also, the TGI in the assay on MALME-3M melanoma, in the assay on OVCAR-3 ovarian, in the assay with LOX IMVI melanoma and with SF-268 CNS was more than 100 µM throughout.
Take `COc1nc2c(c(=O)n1C)N(C(C)=O)C1C(N2)OCC(OC(C)=O)C1OC(C)=O` (centres undefined): the TGI with UO-31 renal, with SK-MEL-28 melanoma, with UACC-257 melanoma, in the assay on OVCAR-5 ovarian, in the assay on U251 CNS and in the assay with ACHN renal was more than 10 µM each time. Also, the TGI with MALME-3M melanoma, in the assay on OVCAR-3 ovarian, in the assay on LOX IMVI melanoma and in the assay with SF-268 CNS was more than 10 µM in each case.
`O=C(N=S(NC(=O)c1ccccc1)C(Cl)(Cl)Cl)c1ccccc1` (centres undefined): the TGI was 29.9 µM with UO-31 renal; 66.7 µM with SK-MEL-28 melanoma; 83.8 µM with UACC-257 melanoma; 50.7 µM with OVCAR-5 ovarian; more than 90.7 µM in the assay on U251 CNS; 47.5 µM with ACHN renal. The TGI was 37.9 µM in the assay with MALME-3M melanoma, more than 77.7 µM in the assay with OVCAR-3 ovarian, 39.3 µM in the assay on LOX IMVI melanoma and more than 100 µM with SF-268 CNS.
As for `Cc1ccccc1N=Nc1ccc(N=Nc2c(O)ccc3ccccc23)c(C)c1`, the TGI in the assay on UO-31 renal, in the assay with SK-MEL-28 melanoma, in the assay on UACC-257 melanoma, with OVCAR-5 ovarian, in the assay with U251 CNS and in the assay on ACHN renal was more than 100 µM each time. For the same molecule, the TGI with MALME-3M melanoma, in the assay on OVCAR-3 ovarian, in the assay on LOX IMVI melanoma and in the assay with SF-268 CNS was more than 100 µM each time.
Regarding `CC1CCCc2c(C#N)c(N)nc(-c3ccc(Cl)cc3)c21` (centres undefined), the TGI with UO-31 renal is 79.7 µM; with SK-MEL-28 melanoma it was more than 100 µM; in the assay with UACC-257 melanoma it was 79.9 µM; in the assay on OVCAR-5 ovarian, 63.3 µM; with U251 CNS it was more than 100 µM; in the assay on ACHN renal, 38.4 µM. Further, the TGI in the assay on MALME-3M melanoma is 85.1 µM; in the assay on OVCAR-3 ovarian it was 44.4 µM; in the assay with LOX IMVI melanoma it was 36.3 µM; in the assay with SF-268 CNS it was more than 100 µM.
For the molecule `CCC(NC(C)c1ccccc1)C(O)c1ccc(OCc2ccccc2)c(OCc2ccccc2)c1` (centres undefined), the TGI came out at 23.7 µM in the assay on UO-31 renal; 36 µM in the assay with SK-MEL-28 melanoma; 13.8 µM in the assay on UACC-257 melanoma; 26.3 µM in the assay with OVCAR-5 ovarian; 27.7 µM in the assay on U251 CNS; 32.2 µM with ACHN renal. In addition, the TGI in the assay on MALME-3M melanoma stood at 28.9 µM; with OVCAR-3 ovarian it was 25.6 µM; in the assay with LOX IMVI melanoma it was 26.3 µM; in the assay with SF-268 CNS, 36.4 µM.
Regarding `COC(=O)c1c2n(c3ccccc13)C[C@H]1OC(C)(C)O[C@@H]21`, the TGI in the assay with UO-31 renal, with SK-MEL-28 melanoma, in the assay on UACC-257 melanoma, in the assay on OVCAR-5 ovarian, in the assay on U251 CNS and in the assay with ACHN renal was more than 100 µM throughout. In addition, the TGI in the assay on MALME-3M melanoma was more than 87.6 µM; in the assay on OVCAR-3 ovarian, more than 100 µM; with LOX IMVI melanoma, more than 100 µM; with SF-268 CNS, more than 100 µM.

(Values after PubChem BioAssay (NCI).)
